Measurements from patent publication US5872280A, “Leukotriene antagonistic benzoic acid derivatives” (Bayer Aktiengesellschaft, priority 1995, dated 1999).

Experiments:
[1] = target: T1, LTD4 -induced contractions of guinea-pig trachea (Cavia porcellus, UniProt Q2NNR5); assay: inhibition of LTD4-induced contractions of guinea-pig trachea; assay type: cell-based; conditions: for Kb: read-out: pKB values for the inhibition of LTD4 -induced contractions of guinea-pig trachea (converted)
T1 construct: contractions of guinea-pig tracheae; from tissue; host or cells: guinea-pig trachea
T1 sequence (Q2NNR5 1-340): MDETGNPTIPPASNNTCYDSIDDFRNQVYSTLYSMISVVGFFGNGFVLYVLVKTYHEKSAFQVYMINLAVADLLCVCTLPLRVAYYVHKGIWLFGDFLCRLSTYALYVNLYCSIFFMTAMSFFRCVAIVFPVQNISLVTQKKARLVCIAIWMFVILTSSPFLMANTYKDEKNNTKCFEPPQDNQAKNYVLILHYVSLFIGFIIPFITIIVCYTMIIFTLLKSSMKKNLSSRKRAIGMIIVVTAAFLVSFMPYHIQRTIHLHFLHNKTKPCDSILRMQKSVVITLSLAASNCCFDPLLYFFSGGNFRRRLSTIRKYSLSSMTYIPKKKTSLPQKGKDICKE
From the text: (§1) The representative preparations used to evaluate these compounds were the inhibition of ^3 H-LTD4 binding to guinea-pig lung membranes, as described in EP 494621, and the inhibition of both LTD4 -induced and LTC4 -induced contractions of guinea-pig tracheae as described by Tudhope et al., Eur. J. Pharmacol (1994) 264, 317-323.

[2] = target: T2, ^3 H-LTD4 binding to guinea-pig lung membranes (Cavia porcellus, UniProt Q2NNR5); assay: inhibition of ^3 H-LTD4 binding to guinea-pig lung membranes; conditions: for Ki: read-out: pKi values for the inhibition of ^3 H-LTD4 binding to guinea-pig lung membranes (converted)
T2 construct: from tissue; host or cells: guinea-pig lung membranes
T2 sequence (Q2NNR5 1-340): T1 sequence (Q2NNR5 1-340)
From the text: as §1

[3] = target: T3, LTC4 -induced contractions of guinea-pig trachea (Cavia porcellus, UniProt H0VW05); assay: inhibition of LTC4-induced contractions of guinea-pig trachea; assay type: cell-based; conditions: read-out: pKB values for the inhibition of LTC4 -induced contractions of guinea-pig trachea (converted)
T3 construct: contractions of guinea-pig tracheae; from tissue; host or cells: guinea-pig trachea
T3 sequence (H0VW05 1-317): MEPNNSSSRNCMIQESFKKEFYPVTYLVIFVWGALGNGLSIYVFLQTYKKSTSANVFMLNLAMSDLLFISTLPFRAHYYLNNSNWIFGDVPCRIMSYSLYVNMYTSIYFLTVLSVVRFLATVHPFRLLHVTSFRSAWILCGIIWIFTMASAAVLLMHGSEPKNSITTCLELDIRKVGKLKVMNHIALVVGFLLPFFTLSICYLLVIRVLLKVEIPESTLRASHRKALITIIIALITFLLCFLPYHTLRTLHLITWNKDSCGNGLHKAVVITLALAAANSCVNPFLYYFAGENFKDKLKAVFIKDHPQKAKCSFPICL
From the text: as §1

[4] = system: both receptor types; conditions: Tudhope et al., Eur. J. Pharmacol. (1994) 264, 317-323; cited from earlier work

Structure (SMILES)	Kb [1] [µM]	Ki [2] [µM]	other results
O=C(CCc1ccc(OCCCCOc2ccccc2)cc1)Nc1ccc(C(=O)O)cc1C(=O)O [Example 22]	0.0501	0.251	
O=C(CCCc1ccc(OCCCCOc2ccccc2)cc1)Nc1ccc(C(=O)O)cc1C(=O)O [Example 24, 3-carboxy-4-([4-{4-phenoxybutoxy}phenyl]-1-oxobutyl)aminobenzoic acid]	0.0501	0.501	
O=C(O)CCCNC(=O)c1cc(C(=O)O)ccc1OCCCc1ccc(OCCCCOc2ccccc2)cc1 [Example 4]	0.126	0.794	Kb [3]: 0.0631 µM
O=C(Cc1ccc(OCCCCOc2ccccc2)cc1)Nc1ccc(C(=O)O)cc1C(=O)O [Example 26]	1.26		
O=C(O)c1ccc(NC(=O)c2cc(C(=O)O)ccc2OCCCc2ccc(OCCCCOc3ccccc3)cc2)cc1 [Example 10]	0.316		Kb [3]: 0.126 µM
O=C(O)c1cccc(NC(=O)c2cc(C(=O)O)ccc2OCCCc2ccc(OCCCCOc3ccccc3)cc2)c1 [Example 8, N-(3-carboxyphenyl)-2-[3-{4-phenoxybutoxy}phenylpropoxy]-5-carboxybenzamide]	0.631		
O=C(O)CCCCC(=O)Nc1cc(C(=O)O)ccc1OCCCc1ccc(OCCCCOc2ccccc2)cc1 [Example 12]	0.251	1	Kb [3]: 0.501 µM
O=C(O)CCCCCOc1cc(C(=O)O)ccc1NC(=O)CCc1ccc(OCCCCOc2ccccc2)cc1 [Example 18]	0.0794	0.631	
O=C(O)CNC(=O)c1cc(C(=O)O)ccc1OCCCc1ccc(OCCCCOc2ccccc2)cc1 [Example 5]	0.0794	0.398	Kb [3]: 1.26 µM
CS(=O)(=O)Nc1ccc(OCCCc2ccc(OCCCCOc3ccccc3)cc2)c(C(=O)NCCC(=O)O)c1 [Example 31, 4-aza-5-(5-[methylsulfonylamino]-2-(3-[4-{4-phenoxybutoxy}phenyl]-propoxy)phenyl)-5-oxopentanoic acid]	3.98	0.316	
O=C(O)CCCSc1cc(C(=O)O)ccc1NC(=O)CCc1ccc(OCCCCOc2ccccc2)cc1 [Example 20]	0.316		
CCCCC/C=C\C\C=C/C=C/C=C/[C@@H](Sc1ccc(C(=O)O)cc1)[C@@H](O)CCCC(=O)O [Compound A]			activity at both receptor types [4]: comparable activity at both receptor types
O=C(O)CCNC(=O)c1cc(C(=O)O)ccc1OCCCc1ccc(OCCCCOc2ccccc2)cc1 [Example 6]	0.0794	0.251	Kb [3]: 0.0794 µM
O=C(CCCc1ccc(OCCCCOc2ccccc2)cc1)Nc1cc(C(=O)O)cc(C(=O)O)c1 [Example 25, 3-carboxy-5-([4-{4-phenoxybutoxy}phenyl]-1-oxobutyl)aminobenzoic acid]	1.58	1.58	
O=C(O)CC(=O)Nc1cc(C(=O)O)ccc1OCCCc1ccc(OCCCCOc2ccccc2)cc1 [Example 14]	0.251	0.316	
O=C(O)CCCC(=O)Nc1cc(C(=O)O)ccc1SCCc1ccc(OCCCCOc2ccccc2)cc1 [Example 33]			pKB values for the inhibition of LTD4 -induced contractions of guinea-pig trachea [1]: 6.6
O=C(O)CCC(=O)Nc1cc(C(=O)O)ccc1SCCc1ccc(OCCCCOc2ccccc2)cc1 [Example 32, 5-aza-5-(5-carboxy-2-(3-[4-{4-phenoxybutoxy}phenyl]-1-thiapropyl) -phenyl)-4-oxopentanoic acid]	0.316		
O=C(CCc1ccc(OCCCCOc2ccccc2)cc1)Nc1cc(C(=O)O)cc(C(=O)O)c1 [Example 23]	1.26	3.16	
O=C(O)CCC(=O)Nc1cc(C(=O)O)ccc1OCCCc1ccc(OCCCCOc2ccccc2)cc1 [Example 13]	0.126	1	
O=C(O)c1cc(NS(=O)(=O)c2ccccc2)ccc1OCCCc1ccc(OCCCCOc2ccccc2)cc1 [Example 30, 2-(3-[4-{4-phenoxybutoxy}phenyl]propoxy)-5-(phenylsulfonylamino)benzoic acid]	20	5.01	
O=C(O)COc1cc(C(=O)O)ccc1NC(=O)CCc1ccc(OCCCCOc2ccccc2)cc1 [Example 16]	0.0501	0.0501	
CS(=O)(=O)Nc1ccc(OCCCc2ccc(OCCCCOc3ccccc3)cc2)c(C(=O)O)c1 [Example 29, 2-(3-[4-{4-phenoxybutoxy}phenyl]propoxy)-5-(methylsulfonylamino)benzoic acid]	2	2	
O=C(O)CCCCNC(=O)c1cc(C(=O)O)ccc1OCCCc1ccc(OCCCCOc2ccccc2)cc1 [Example 7]			pKB values for the inhibition of LTD4 -induced contractions of guinea-pig trachea [1]: 6.6; pKi values for the inhibition of ^3 H-LTD4 binding to guinea-pig lung membranes [2]: 5.7
CS(=O)(=O)Nc1ccc(SCCc2ccc(OCCCCOc3ccccc3)cc2)c(C(=O)NCCC(=O)O)c1 [Example 34, 5-aza-5-(5-methylsulfonylamino]-2-(3-[4-{4-phenoxybutoxy}phenyl]-1-thiapropyl)phenyl-4-oxopentanoic acid]			pKB values for the inhibition of LTD4 -induced contractions of guinea-pig trachea [1]: 5.6; pKi values for the inhibition of ^3 H-LTD4 binding to guinea-pig lung membranes [2]: 5.7
O=C(O)CCCC(=O)Nc1cc(C(=O)O)ccc1OCCCc1ccc(OCCCCOc2ccccc2)cc1 [Example 11]	0.251	1.58	Kb [3]: 1 µM
O=C(O)CCCNC(=O)c1cc(C(=O)O)ccc1OCCCc1cccc(OCCCCOc2ccccc2)c1 [Example 36, 5-aza-6-(5-carboxy-2-(3-[3-{4-phenoxybutoxy}phenyl]propoxy)phenyl)-6-oxohexanoic acid]		25.1	
O=C(O)CCCC(=O)Nc1cc(C(=O)O)ccc1OCCc1ccc(OCCCCOc2ccccc2)cc1 [Example 15]			pKB values for the inhibition of LTD4 -induced contractions of guinea-pig trachea [1]: 6.4; pKi values for the inhibition of ^3 H-LTD4 binding to guinea-pig lung membranes [2]: 5.3
O=C(O)CCCOc1cc(C(=O)O)ccc1NC(=O)CCc1ccc(OCCCCOc2ccccc2)cc1 [Example 17]	0.251	0.398	
O=C(O)CCCC(=O)c1cc(C(=O)O)ccc1NC(=O)CCc1ccc(OCCCCOc2ccccc2)cc1 [Example 21]	0.0316		
